Source: patent US20210283213A1, “CRYSTAL OF POLYMYXIN B1 SULFATE, POLYMYXIN B2 SULFATE OR THEIR MIXTURE AND PREPARATION METHOD THEREOF” (Hubei Ruihaoanke Pharmaceutical Technology Development Co., …, priority 2016, published 2021)

Experiments:
Format in all cases: physicochemical
[1] = Crystal form competitive experiment; settings: in ethanol and in a mixed solvent of ethanol/water at room temperature
Method: (§1) A competitive experiment between crystal form 1 and crystal form A of polymyxin sulfate was carried out to investigate crystal form stability of the two crystal forms in the solvent, water and ethanol, which are commonly used in the preparation, and to evaluate the conversion of the two crystal forms, in order to provide reference for subsequent preparation operations such as granulation.
1. Equal amounts of samples of crystal form 1 and form A were taken and mixed uniformly to obtain an initial mixed sample, which was used for XRD detection (FIG. 14).
2. The uniformly-mixed sample was divided into two portions, to one of which was added 200 μL ethanol, and to another of which was added 300 μL mixed solvent of ethanol/water=5/1 (v/v), to form a suspension. The suspension was stirred at room temperature, and centrifuged and sampled at different times for XRD detection.

[2] = Crystal mush experiment at room temperature; settings: in ethanol and in a mixed solvent of ethanol/water at room temperature
Method: as §1

[3] = TGA (thermogravimetric analysis)
[4] = DVS (dynamic moisture adsorption analysis); settings: 0% RH-80% RH
[5] = Hot stage XRD
[6] = Stability evaluation of crystal form in a dry state at room temperature; settings: placed in a dry state at room temperature for 3 days

Substance | most stable crystal form (competitive experiment) [1] | most stable crystal form (crystal mush experiment) [2] | decomposition temperature [3] | hygroscopicity [4] | crystal form change on heating [5] | Stability evaluation [6]
polymyxin B1 sulfate [crystal form A] | most stable crystal form | most stable crystal form | with hot stage XRD, and the decomposition temperature was 213 °C | extremely strong hygroscopicity. | – | –
polymyxin B1 sulfate [crystal form 1] | – | – | XRD, and the decomposition temperature was 222 °C | extremely strong hygroscopicity. | The crystal form has not changed when heating up to 170 °C | Unstable, the crystal form changed to crystal form A when placed
